Test results from US20120100204A1, “TGF-Beta Stimulating Agent Compositions and Combinations” (TCP INNOVATIONS LTD, priority 2007, published 2012).

What was measured:
tgfb3 mRNA = tgfb3 mRNA level by quantitative PCR in human aortic vascular smooth muscle cells; type: cell-based; conditions: 24 hrs
Description: (1995) Cardiovasc. Res. 29:848-55). […] The cells were then incubated for either 24 hrs or 72 hrs depending on the experiment. All treatment conditions were established in triplicate. The level of mRNA for tgfb1, tgfb2 and tgfb3 were estimated by quantitative PCR. The media was removed and RNA was carefully prepared using the Ambion RNAqueous4PCR kit (Ambion#1914) in accordance with the manufacturer's instructions. The purity of the RNA and the quantity was assessed spectrophotometrically. […] This analysis results in both a gel-like image as well as electrophoretic data. Indications of RNA degradation are: (a) decreasing ratio of ribosomal bands (b) additional peaks bellow the ribosomal bands (c) Decrease in overall RNA signal (d) shift towards shorter fragments. […] Next, the RNA was converted to cDNA using the ABI High-Capacity cDNA Archive Kit, in accordance with manufacturer's instructions. […] Samples were vortexed to ensure thorough mixing. cDNA was aliquoted into ABI 384 well plates using a multi-channel pipette, 4.5 μl of sample into each well. Samples were assayed in triplicate (that is, nine determinations in total were made for each condition, being three separate assays on each of three replicate culture wells). The assay mix and Universal Master Mix were prepared and aliquoted across the 384 well plates 5.5 μl in each well, using a single channel pipette. […] Universal Master Mix=5 μl; cDNA=4.5 μl. The plates were then heat sealed using Abgene clear seal strong plastic heat seals, and then cycled and scanned using the ABI 9700HT under the following conditions: 95° C. for 10 minutes to activate the AmpliTaq GOLD, then 40 cycles of: 95° C. for 15 sec (Denaturation), 60° C. for 60 […]). […] Quantitative PCR was performed using several primer/probe sets. […] We used both commercially available primer/probe sets (ABI Taqman pre-validated assays), using both available sets in the ABI database for tgfb1 and tgfb2, as well as the single available set for tgfb3. In addition, we used our own manual design probe/primer set for each of tgfb1, tgfb2 and tgfb3. […] In all quantitative PCR experiments, several additional controls were included: firstly, a control for each sample is run with no reverse transcription to ensure the mRNA sample is not contaminated with genomic DNA (although the manual design probe/primer sets were all selected to cross an exon/exon boundary, ensuring no detectable amplicon is produced from genomic DNA templates). […] Failure of either control led to the repeat of the entire experiment.

TGF-beta1 protein = experiment: total TGF-beta1 protein in conditioned medium, Quantikine ELISA; type: cell-based, human; conditions: 24 hrs or 72 hrs; any dose tested (Tamoxifen up to 33 μM, aspirin up to 100 μM)
Description: The cells were cultured (37° C.; 5% CO2) in DMEM+20% foetal calf serum (FCS), and subcultured every 5 days at 1:2 dilution, using 0.02% trypsin/EDTA (Gibco).
For the experiments, the cells were subcultured into 12-well cluster plates at 1×10^5 cells/cm^2, and allowed to grow for 24 hrs. […] The cells were then incubated for either 24 hrs or 72 hrs depending on the experiment. All treatment conditions were established in triplicate.
TGF-beta1 protein levels in the medium was measured using the Quantikine ELISA kit (R&D Systems) in accordance with the manufacturer's instructions, except that the medium was pre-activated by addition of an equal volume of 2.7M HCl 10M Urea, and then neutralised by addition of the same volume of 1M HEPES 2M NaOH. […] Note that TGF-beta proteins are well known to interact with many different matrix proteins and cell surface proteins, including proteoglycans, low affinity type III receptors, fibronectin and collagen, and consequently the amount of TGF-beta protein in the medium may not represent the total amount synthesised by the cells, and a negative result in the assay for TGF-beta protein may represent a false negative.

fibrin(ogen) = fibrin(ogen) deposition into the blood vessel wall, quantitative immunofluoresence
Text: Adult male apoE-deficient mice, back-crossed onto a C57B16 background for at least five generations, were randomised into groups of eight animals at 12 weeks of age, such that each group had similar average body weight. […] The amount of food eaten and the body weight of each mouse was monitored daily for the first week, and once per week thereafter. After 12 weeks of treatment, the mice were sacrificed by CO2 asphyxiation, and heart & lung blocks were excised, embedded in Cryo-M-bed (Bright Instruments, UK) without fixation and snap frozen in liquid nitrogen.
Sections were then prepared from the aortic root according to the Paigen Strategy (a defined sequence of cutting sections which allow reproducible comparison between animals; see for example Grainger et al. (1995) Nature Med. 1:1067-72 and the references therein). 4 μm crysosections were cut using a motordriven cryotome (Bright Instruments) and collected onto poly-L-lysine coated glass microscope slides, then fixed in ice-cold acetone for 90 secs, allowed to air dry and stored at −20° C. until analysed.
The level of fibrin or fibrinogen deposited into the vessel wall was also estimated by quantitative immunofluoresence, using a method identical to that for TGF-beta1, except that the primary antibody was sheep anti-fibrin(ogen) (Chemicon; 2 μg/ml) and the secondary antibody was donkey anti-sheep IgG minimum cross-reactivity, FITC labelled (Jackson Immunoresearch), as previously described (Thromb Res. 2001 Apr. 1; 102(1):71-80).
Adult male apoE-deficient mice were treated, in groups of 8, with fish oil (Seven Seas, UK), aspirin or both agents simultaneously from 12 weeks of age until 24 weeks of age, exactly as described in Example 2.
The levels of TGF-beta1 and fibrin(ogen) in the vessel wall were determined by quantitative immunofluoresence, exactly as described in example 2.

Row | effect on fibrin(ogen) deposition into the blood vessel wall (in words) (fibrin(ogen); mouse, in vivo) | SMILES | Level of mRNA, estimated by qPCR: tgfb3 (tgfb3 mRNA; 10 μM A) [fold-change] | Level of mRNA, estimated by qPCR: tgfb3 (tgfb3 mRNA; 33 μM A) [fold-change] | Level of mRNA, estimated by qPCR: tgfb3 (tgfb3 mRNA; 100 μM A) [fold-change] | effect on total TGF-beta1 protein levels in conditioned medium (TGF-beta1 protein) | Level of mRNA, estimated by qPCR: tgfb3 (tgfb3 mRNA; 3.3 μM T) [fold-change] | Level of mRNA, estimated by qPCR: tgfb3 (tgfb3 mRNA; 10 μM T) [fold-change] | Level of mRNA, estimated by qPCR: tgfb3 (tgfb3 mRNA; 33 μM T) [fold-change] | doses that significantly increased tgfb3 mRNA (tgfb3 mRNA) [µM] | Fibrin(ogen) staining (fibrin(ogen); apoE mice, 12 weeks, TMX 1 mg/kg/day, Aspirin 30 mg/kg/day, mean ± SD) [AU] | increase of fibrin(ogen) deposition into the vessel wall (fibrin(ogen); apoE mice, Tamoxifen 1 mg/kg/day, vs control) [%]
1 | significantly reduced | CC(=O)Oc1ccccc1C(=O)O [Aspirin, acetylsalicylic acid] | 1.09 ± 0.08 | 1.06 ± 0.13 | 0.94 ± 0.09 | no statistically significant effect | – | – | – | – | – | –
2 | – | CC/C(=C(\c1ccccc1)c1ccc(OCCN(C)C)cc1)c1ccccc1 [Tamoxifen] | – | – | – | no statistically significant effect | 0.92 ± 0.16 | 1.19 ± 0.21 | 1.31 ± 0.11 | ≥ 10 | 151 ± 7 | 23
